Assay results as given in patent US8975265B2, “Substituted imidazo[1,2-a]pyrimidines and —pyridines” (Bayer Intellectual Property GmbH, priority 2010, dated 2015).

Assays:
[1] = target: His-tagged human recombinant kinase full-length Akt1 (Homo sapiens (Human), UniProt P31749); assay: Akt1 kinase assay (TR-FRET); format: biochemical; conditions: 10 μM ATP; read-out: Akt1, median IC50
Procedure, shortened: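 Full-length His-tagged Akt1 (about 0.05 ng/μl final) preincubated 15 min at 22 °C with compound in 50 mM TRIS/HCl pH 7.5, 5 mM MgCl2, 1 mM DTT, 0.02% Triton X-100; biotinylated peptide substrate. Phosphopeptide detected by TR-FRET (Eu-chelate antibody to streptavidin-XL665) after 1 h at 22 °C.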

[2] = system: p-AKT1/2/3-S473 in KPL4 breast tumour cell line; assay: Cellular p-AKT1/2/3-S473 assay; format: cell-based; conditions: KPL4 breast tumour cell line, 2 hours treatment; read-out: pAKT-S743 median IC50
Procedure, shortened: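 KPL4 cells (PIK3CA H1047R, HER2 0/E, hormone independent) were seeded at 60–80% confluency, cultured overnight, then exposed to compound for 2 h at 37 °C. pAKT-S473 and total AKT measured together by MSD Akt Duplex on 20 µg extract; pAKT expressed as % of total AKT, at least duplicate with independent repeats.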

[3] = system: p-4E-BP1-T70 in KPL4 breast tumour cell line; assay: Cellular p-4E-BP1-T70 assay; format: cell-based; conditions: 2 hours treatment, read-out: P4EBP1-T70 median IC50
Protocol: The molecular mechanism of action was investigated in a set of experiments to assess the inhibition of the PI3K-AKT-mTOR pathway in responsive cell lines such as KPL4 breast tumour cell line (PIK3CAH1047R, HER20/E and hormone independent). The phospho-substrates of PI3K-AKT-mTOR axis were used as the read-outs to reflect pathway inhibition. Cells were seeded at 60-80% confluency per well in 96-well cell culture plates. After overnight incubation at 37° C. 5% CO2, cells were treated with compounds and vehicle at 37° C. for 2 hours. Thereafter, cells were lysed in 150 μl lysis buffer and the levels of phospho-AKT at T308 and S473 and p-4E-BP1 at T70 sites were determined with the corresponding AlphaScreen® SureFire® assay kits (Perkin Elmer: 4E-BP1 Assay Kit Cat # TRG4E2S10K; Akt 1/2/3 p-Ser 473 #TGRA4S500 and Akt 1/2/3 p-Thr 308 #TGRA3S500 as well as IgG detection Kit #6760617M) as described in the manuals. All measurements where at least done in duplicates and confirmed by independent repetition.

[4] = system: KPL-4 breast cancer cell line; assay: Tumor cell proliferation assay (CellTiter-Glo, 72 h), KPL-4; format: cell-based; conditions: KPL4, 72h drug exposure
Procedure, shortened: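 KPL-4 cells were treated with compound for 72 h at 37°C. Viability was measured as ATP by CellTiter-Glo luminescence, with a separate t=0 plate read after overnight attachment. A reference compound was run as standard.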

[5] = system: MCF7; assay: Tumor cell proliferation assay (CellTiter-Glo, 72 h), MCF7; format: cell-based; conditions: Homo sapiens, 72h drug exposure
Protocol: Compounds were tested in a cell-based assay that measures the capacity of the compounds to inhibit tumour cell proliferation following a 72h drug exposure. Cell viability is determined using CellTiter-Glow® (CTG, Promega, cat# G7571/2/3). The CellTiter-Glo® Luminescent Cell Viability Assay is a homogeneous method to determine the number of viable cells in culture. Detection is based on using the luciferase reaction to measure the amount of ATP from viable cells. The amount of ATP in cells correlates with cell viability. Within minutes after a loss of membrane integrity, cells lose the ability to synthesize ATP, and endogenous ATPases destroy any remaining ATP; thus the levels of ATP fall precipitously.
Cells were plated at 3000-5000 cells/well (depending on the cell lines) in 90 μL growth medium on MTPs (Corning; #3603, black plate, clear flat bottom). For each cell line assayed, cells were plated onto a separate plate for determination of […] at t=0 hour and t=72 hour time points. Following overnight incubation at 37° C., chemiluminescence values for the t=0 samples were determined after adding 10 μl medium and 100 μl CTG solution according to manufacture protocol. Plates for the t=72 hour time points were treated with compounds diluted into growth medium at ten times final concentration added in 10 μL to the cell culture plate. Cells were then incubated for 72 hours at 37° C. Chemiluminescence values for the t=72 hour samples were determined. […] Experiments were controlled using a reference compound as standard.

His-tagged human recombinant kinase full-length Akt1, sequence (P31749 whole entry): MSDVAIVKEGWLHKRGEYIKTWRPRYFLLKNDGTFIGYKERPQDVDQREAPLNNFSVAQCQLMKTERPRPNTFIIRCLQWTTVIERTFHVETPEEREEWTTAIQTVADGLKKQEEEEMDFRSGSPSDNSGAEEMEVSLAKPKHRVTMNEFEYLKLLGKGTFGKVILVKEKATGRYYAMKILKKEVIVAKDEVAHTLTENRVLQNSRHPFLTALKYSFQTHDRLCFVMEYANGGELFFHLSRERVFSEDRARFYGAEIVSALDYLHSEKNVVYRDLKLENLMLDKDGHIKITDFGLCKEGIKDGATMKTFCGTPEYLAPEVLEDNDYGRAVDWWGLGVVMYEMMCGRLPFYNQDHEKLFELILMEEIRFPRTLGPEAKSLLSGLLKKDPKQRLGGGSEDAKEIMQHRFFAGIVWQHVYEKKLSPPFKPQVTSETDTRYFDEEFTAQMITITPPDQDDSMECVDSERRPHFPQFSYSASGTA

Row | Compound | IC50 [1] | IC50 [2] | IC50 [3] | IC50 [4] | IC50 [5]
1 | COc1cc(-c2cnc[nH]2)cn2c(-c3ccccc3)c(-c3ccc(C4(N)CCC4)cc3)nc12 [Example 2-148] | 139 nM | 397 nM | 1810 nM | 1900 nM | 1500 nM
2 | C=Cc1cc(OC)c2nc(-c3ccc(C4(N)CCC4)cc3)c(-c3ccccc3)n2c1 [Example 2-160] | 191 nM | 349 nM | 1380 nM | 1600 nM | 800 nM
3 | NC1(c2ccc(-c3nc4cc(F)ccn4c3-c3ccccc3)cc2)CCC1 [Example 2-67] | 64 nM | 195 nM | 2000 nM | 1700 nM | 1300 nM
4 | Cc1c(-c2ccn[nH]2)cn2c(-c3ccccc3)c(-c3ccc(C4(N)CCC4)cc3)nc2c1C [Example 2-89] | 330 nM | 380 nM | 1400 nM | 1900 nM | 1700 nM
5 | Nc1ccn2c(-c3ccccc3)c(-c3ccc(C4(N)CCC4)cc3)nc2c1 [Example 2-151] | 514 nM | 482 nM | 4810 nM | 1700 nM | 200 nM
6 | CS(=O)(=O)Nc1ccc2nc(-c3ccc(C4(N)CCC4)cc3)c(-c3ccccc3)n2c1 [Example 2-159] | 2990 nM | 907 nM | 3280 nM | 4700 nM | 2800 nM
7 | Cc1cc(Cl)cn2c(-c3ccccc3)c(-c3ccc(C4(N)CCC4)cc3)nc12 [Example 2-76] |  | 582 nM | 1960 nM | 2100 nM | 1700 nM
8 | NC(=O)c1cc(Br)c2nc(-c3ccc(C4(N)CCC4)cc3)c(-c3ccccc3)n2c1 [Example 2-95] | 11 nM | 3 nM | 13 nM | 400 nM | 400 nM
9 | Cc1cccc2nc(-c3ccc(C4(N)CCC4)cc3)c(-c3ccccc3)n12 [Example 14-0, 1-[4-(5-methyl-3-phenylimidazo[1,2-a]pyridin-2-yl)phenyl]cyclobutanamine] | 1500 nM | 1120 nM | 8150 nM | 3100 nM | 1800 nM
10 | NC(=O)c1cc(-c2cn[nH]c2)cn2c(-c3ccccc3)c(-c3ccc(C4(N)CCC4)cc3)nc12 [Example 2-97] | 67 nM | 377 nM | 1590 nM | 1900 nM | 1800 nM
11 | CCc1cc(OC)c2nc(-c3ccc(C4(N)CCC4)cc3)c(-c3ccccc3)n2c1 [Example 2-147] | 148 nM | 248 nM | 1340 nM | 1700 nM | 500 nM
12 | Cc1cc(Br)cn2c(-c3ccccc3)c(-c3ccc(C4(N)CCC4)cc3)nc12 [Example 2-82] |  | 1020 nM | 3280 nM | 2100 nM | 1700 nM
13 | NC1(c2ccc(-c3nc4ccc(-c5cnc[nH]5)cn4c3-c3ccccc3)cc2)CCC1 [Example 2-129] | 195 nM | 180 nM | 2180 nM | 1800 nM | 300 nM
14 | COc1ccn2c(-c3ccccc3)c(-c3ccc(C4(N)CCC4)cc3)nc2c1C#N [Example 2-79] |  | 48 nM | 370 nM | 900 nM | 500 nM
15 | NC(=O)c1cc(Br)cn2c(-c3ccccc3)c(-c3ccc(C4(N)CCC4)cc3)nc12 [Example 2-94] |  | 58 nM | 292 nM | 1800 nM | 1700 nM
16 | Nc1ccc2nc(-c3ccc(C4(N)CCC4)cc3)c(-c3ccccc3)n2c1 [Example 2-155] | 854 nM | 374 nM | 2220 nM | 5500 nM | 1700 nM
17 | Cc1c(Cl)cn2c(-c3ccccc3)c(-c3ccc(C4(N)CCC4)cc3)nc2c1-c1ccc(F)cc1 [Example 2-87] |  | 7530 nM | 10000 nM | 3700 nM | 2100 nM

Row | Compound | IC50 [1] | IC50 [2] | IC50 [3] | IC50 [4] | IC50 [5]
18 | Cc1c(Cl)cn2c(-c3ccccc3)c(-c3ccc(C4(N)CCC4)cc3)nc2c1-c1ccn[nH]1 [Example 2-88] | 187 nM | 2570 nM | 8520 nM | 2500 nM | 2100 nM
19 | NC(=O)c1cc(-c2cccnc2)cn2c(-c3ccccc3)c(-c3ccc(C4(N)CCC4)cc3)nc12 [Example 2-99] | 177 nM | 93 nM | 90 nM | 1800 nM | 1800 nM
20 | NC1(c2ccc(-c3nc4cc(Cl)c(Cl)cn4c3-c3ccccc3)cc2)CCC1 [Example 2-80] |  | 912 nM | 1860 nM | 2000 nM | 1800 nM
21 | NC1(c2ccc(-c3nc4c(Cl)cc(Cl)cn4c3-c3ccccc3)cc2)CCC1 [Example 2-78] |  | 100 nM | 1580 nM | 1900 nM | 1100 nM
22 | Cc1cc(-c2cccnc2)cn2c(-c3ccccc3)c(-c3ccc(C4(N)CCC4)cc3)nc12 [Example 2-104] | 175 nM | 112 nM | 348 nM | 300 nM | 200 nM
23 | Cc1c(Br)cn2c(-c3ccccc3)c(-c3ccc(C4(N)CCC4)cc3)nc2c1C [Example 2-84] |  | 1340 nM | 3140 nM | 2200 nM | 1600 nM
24 | NC(=O)c1cc(-c2ccn[nH]2)cn2c(-c3ccccc3)c(-c3ccc(C4(N)CCC4)cc3)nc12 [Example 2-98] | 69 nM | 225 nM | 1120 nM | 1900 nM | 1900 nM
25 | NC1(c2ccc(-c3nc4ccc(-c5ncc[nH]5)cn4c3-c3ccccc3)cc2)CCC1 [Example 2-130] | 321 nM | 731 nM |  | 8400 nM | 1800 nM
26 | CCOC(=O)c1cc(Br)c2nc(-c3ccc(C4(N)CCC4)cc3)c(-c3ccccc3)n2c1 [Example 2-77] |  | 474 nM | 1720 nM | 8100 nM | 1700 nM
27 | NC1(c2ccc(-c3nc4c(Br)cc(C(F)(F)F)cn4c3-c3ccccc3)cc2)CCC1 [Example 2-86] |  | 1200 nM | 2510 nM | 2000 nM | 1800 nM
28 | NC1(c2ccc(-c3nc4c(-c5ccc6cn[nH]c6c5)cccn4c3-c3ccccc3)cc2)CCC1 [Example 2-72] | 390 nM | 814 nM |  | 2100 nM | 1700 nM
29 | COc1cncc(-c2cc(C)cn3c(-c4ccccc4)c(-c4ccc(C5(N)CCC5)cc4)nc23)c1 [Example 2-91] |  | 678 nM | 1610 nM | 2000 nM | 1800 nM
30 | Cc1ccn2c(-c3ccccc3)c(-c3ccc(C4(N)CCC4)cc3)nc2c1Cl [Example 2-74] |  | 251 nM | 1400 nM | 1400 nM | 1600 nM
31 | Cc1cc(Br)c2nc(-c3ccc(C4(N)CCC4)cc3)c(-c3ccccc3)n2c1 [Example 2-83] |  | 189 nM | 615 nM | 1800 nM | 2000 nM
32 | Cc1ccc2nc(-c3ccc(C4(N)CCC4)cc3)c(-c3ccccc3)n2c1 [Example 2-7] | 203 nM | 487 nM | 3960 nM | 1900 nM | 
33 | N#Cc1ccc2nc(-c3ccc(C4(N)CCC4)cc3)c(-c3ccccc3)n2c1 [Example 1-10] | 287 nM | 138 nM | 2030 nM | 1600 nM | 
